Data: paper PMC6941756 (Biochemistry, 2019)

Biological target: HIV-1 protease KY variant (Human immunodeficiency virus 1, UniProt P12497, L577V/L578M/Q495K, form not given)

CC(C)CN(C[C@@H](O)[C@H](Cc1ccccc1)NC(=O)O[C@H]1CO[C@H]2OCC[C@H]21)S(=O)(=O)c1ccc(N)cc1 [DRV, darunavir]
times more tightly bound than expected under additivity of binding free energies (KY variant protease): about 3.5 times
increase in Ki compared with the NL4–3 WT protease (all of the KY variants vs NL4–3 WT): ≥ 500 fold
